Measured values from patent publication US20240417405A1, “Substituted Spiro Derivatives” (Janssen Pharmaceutica NV, priority 2021, published 2024).

Columns and labels:
MOLM14 cells = assay: Proliferation assay, spheroid-like growth, MOLM14 (MLL-AF9 rearranged); assay type: cell-based, human; conditions: Homo sapiens, MOLM-14, 192 h, 8 days, confluence as measure of spheroid size, read-out: spheroid assay_OneTime MOLM14 IC50
Method in brief: (§1)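 MOLM14 (MLL-AF9) or KO-52 (MLL wildtype) cells were grown in ultra-low attachment round-bottom wells with compound (0.3% DMSO) for 8 days at 37 °C. Spheroid confluence was imaged live on day 8, normalized to DMSO and a high-dose reference/staurosporin control, and absolute IC50 fitted with variable slope.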

[1] = target: T1, menin/MLL (terbium chelate-labeled menin, FITC-MBM1 peptide) (Homo sapiens, UniProt O00255, T541A); assay: Menin/MLL homogenous time-resolved fluorescence (HTRF) assay; assay type: binding; conditions: 30 min incubation
T1 construct: Menin (a.a 1-610-6xhis tag)
T1 sequence (O00255 with tags, fused parts or gaps T541A): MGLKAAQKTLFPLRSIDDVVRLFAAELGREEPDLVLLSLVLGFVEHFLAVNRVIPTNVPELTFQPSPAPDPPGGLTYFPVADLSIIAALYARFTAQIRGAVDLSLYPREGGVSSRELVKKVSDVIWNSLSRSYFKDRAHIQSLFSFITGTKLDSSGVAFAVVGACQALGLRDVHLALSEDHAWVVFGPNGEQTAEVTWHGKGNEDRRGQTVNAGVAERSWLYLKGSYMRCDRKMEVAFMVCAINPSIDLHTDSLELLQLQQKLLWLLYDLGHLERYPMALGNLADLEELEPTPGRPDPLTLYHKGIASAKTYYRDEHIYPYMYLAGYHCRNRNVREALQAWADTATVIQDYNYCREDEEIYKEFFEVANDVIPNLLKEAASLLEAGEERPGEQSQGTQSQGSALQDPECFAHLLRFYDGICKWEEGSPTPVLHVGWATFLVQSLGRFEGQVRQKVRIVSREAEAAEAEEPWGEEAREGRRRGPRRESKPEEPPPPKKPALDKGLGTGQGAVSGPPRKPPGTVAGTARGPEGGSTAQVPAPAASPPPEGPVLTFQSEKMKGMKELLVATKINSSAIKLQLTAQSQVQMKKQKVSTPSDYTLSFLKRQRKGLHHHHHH
Method in brief: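 Read-out: TR-FRET ratio (FITC 520 nm / terbium 490 nm, ex. 337 nm) after 15 min with 75 nM FITC-MBM1 peptide. Test compound first sat 30 min with 200 pM Tb-menin 1-610-His, 0.5% DMSO, pH 7.5 Tris buffer. IC50 by Hill fit; values under 0.1 nM reported as 0.1 nM.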

KO-52 cells = assay: Proliferation assay, spheroid-like growth, KO-52 (MLL wildtype control cell line); assay type: cell-based, human; conditions: Homo sapiens, 192 h, KO-52 control cells, 8 days, confluence as measure of spheroid size; read-out: spheroid assay_OneTime KO-52 IC50
Method in brief: as §1

SMILES	IC50 (MOLM14 cells) [µM]	IC50 [1] [µM]	IC50 (KO-52 cells) [µM]
CC(C)[C@H]([C@H]1C[C@]2(COC(=O)N2)C1)N1CC2(CCN(c3ncnnc3Oc3ccc(F)cc3-c3cncnc3C3CC3)C2)C1 (single isomer, unassigned) [Compound 319]	> 0.94	0.0237	> 15
CC(C)[C@@H]([C@H]1C[C@]2(COC(=O)N2)C1)N1CC2(CCN(c3ncnnc3Oc3ccc(F)cc3-c3cncnc3C3CC3)C2)C1 (single isomer, unassigned) [Compound 320]	0.028	0.0001	4.6
CC(C)[C@H]([C@H]1C[C@]2(COC(=O)N2)C1)N1CC2(CCN(c3ncnnc3Oc3ccc(F)cc3-c3ncccc3C3CC3)C2)C1 (single isomer, unassigned) [Compound 321]	> 0.94	0.0911	> 15
CC(C)[C@@H]([C@H]1C[C@]2(COC(=O)N2)C1)N1CC2(CCN(c3ncnnc3Oc3ccc(F)cc3-c3ncccc3C3CC3)C2)C1 (single isomer, unassigned) [Compound 322]	0.03	0.0003	> 15
CC(C)[C@@H]([C@H]1C[C@]2(COC(=O)N2)C1)N1CC2(CCN(c3ncnnc3Oc3ccc(F)cc3-c3nnccc3C3CC3)C2)C1 (single isomer, unassigned) [Compound 324]	> 0.94	0.117	> 15
COC1(C(=O)N[C@H]2C[C@@H]([C@@H](C(C)C)N3CC4(CCN(c5ncnnc5Oc5ccc(F)cc5-c5cncnc5C5CC5)C4)C3)C2)CC1 (single isomer, unassigned) [Compound 330]	0.13	0.0004	5.9
CC(C)[C@H](C1CCN(CC2COC2)CC1)N1CC2(CCN(c3ncnnc3Oc3ccc(F)cc3-c3cnc(C#N)nc3C3CC3)C2)C1 (single isomer, unassigned) [Compound 333]	0.038	0.0001	0.82
Fc1ccc(Oc2nncnc2N2CCC3(C2)CN([C@H](C2CCN(CC4COC4)CC2)C24CC(C2)C4)C3)c(-c2cncnc2C2CC2)c1 (single isomer, unassigned) [Compound 335]	0.03	0.0002	3.24
Fc1ccc(Oc2nncnc2N2CCC3(C2)CN([C@@H](C2CCN(CC4COC4)CC2)C24CC(C2)C4)C3)c(-c2cncnc2C2CC2)c1 (single isomer, unassigned) [Compound 336]	0.18	0.0006	7.65
O=c1cc(C2CC2)c(-c2cc(F)ccc2Oc2nncnc2N2CCC3(C2)CN([C@@H](C2CCN(CC4COC4)CC2)C24CC(C2)C4)C3)n[nH]1 (single isomer, unassigned) [Compound 339]	> 0.94	0.0004	> 15
CS(=O)(=O)C1CCN([C@H]2C[C@@H]([C@@H](N3CC4(CCN(c5ncnnc5Oc5ccc(F)cc5-c5cncnc5C5CC5)C4)C3)C34CC(C3)C4)C2)CC1 (single isomer, unassigned) [Compound 341]	> 0.94	0.003	> 15
CC(=O)N[C@H]1C[C@@H]([C@H](N2CC3(CCN(c4ncnnc4Oc4ccc(F)cc4-c4cncnc4C4CC4)C3)C2)C23CC(C2)C3)C1 (single isomer, unassigned) [Compound 342]	0.082	0.0003	5.84
CC(C)[C@@H]([C@H]1CC[C@@H](NC(=O)C2CC2)C1)N1CC2(CCN(c3ncnnc3Oc3ccc(F)cc3-c3cncnc3C3CC3)C2)C1 (single isomer, unassigned) [Compound 344]	0.054	0.0001	1.59
CC(C)[C@H]([C@H]1C[C@H](N2CCC2)C1)N1CC2(CCN(c3ncnnc3Oc3ccc(F)cc3-c3cncnc3C3CC3)C2)C1 (single isomer, unassigned) [Compound 345]	0.055	0.001	7.4
CC(C)[C@@H]([C@H]1C[C@H](N2CCC2)C1)N1CC2(CCN(c3ncnnc3Oc3ccc(F)cc3-c3cncnc3C3CC3)C2)C1 (single isomer, unassigned) [Compound 346]	0.7	0.0023	> 15
CC(C)[C@H](C1CN(CC2COC2)C1)N1CC2(CCN(c3ncnnc3Oc3ccc(F)cc3-c3cncnc3C3CC3)C2)C1 (single isomer, unassigned) [Compound 354]	2.43	0.0074	> 15
CC(C)[C@H](C1CCN(C[C@H]2C[C@@H](O)C2)CC1)N1CC2(CCN(c3ncnnc3Oc3ccc(F)cc3-c3cncnc3C3CC3)C2)C1 (single isomer, unassigned) [Compound 357]	0.045	0.0001	9.79

Now those with a lower IC50 (MOLM14 cells), led by results:

IC50 (MOLM14 cells) [µM]	IC50 [1] [µM]	SMILES	IC50 (KO-52 cells) [µM]
0.026	0.0001	CC(C)[C@H]([C@H]1C[C@@H](N2CC3(COC(=O)N3)C2)C1)N1CC2(CCN(c3ncnnc3Oc3ccc(F)cc3-c3cncnc3C3CC3)C2)C1 (single isomer, unassigned) [Compound 318]	6.9
0.023	0.0001	CC(C)[C@H](C1CCN(C[C@H]2C[C@H](O)C2)CC1)N1CC2(CCN(c3ncnnc3Oc3ccc(F)cc3-c3cncnc3C3CC3)C2)C1 (single isomer, unassigned) [Compound 358]	2.21
0.02	0.0001	CC(C)[C@H](C1CCN(C[C@H]2C[C@@](C)(O)C2)CC1)N1CC2(CCN(c3ncnnc3Oc3ccc(F)cc3-c3cccnc3C3CC3)C2)C1 (single isomer, unassigned) [Compound 351]	1.1
0.015	0.0002	CC(=O)N[C@H]1C[C@@H]([C@@H](C(C)C)N2CC3(CCN(c4ncnnc4Oc4ccc(F)cc4-c4cnc(C#N)nc4C4CC4)C3)C2)C1 (single isomer, unassigned) [Compound 343]	1.14
0.011	0.0003	CCC(=O)N[C@H]1C[C@@H]([C@@H](C(C)C)N2CC3(CCN(c4ncnnc4Oc4ccc(F)cc4-c4cncnc4C4CC4)C3)C2)C1 (single isomer, unassigned) [Compound 356]	> 15
0.004	0.0001	CC(C)[C@H]([C@H]1C[C@@H](N2CCC3(COC3)C2)C1)N1CC2(CCN(c3ncnnc3Oc3ccc(F)cc3-c3cncnc3C3CC3)C2)C1 (single isomer, unassigned) [Compound 325]	4.98
0.004	0.0002	CC(C)[C@H]([C@H]1C[C@@H](N(C)CCC(=O)N(C)C)C1)N1CC2(CCN(c3ncnnc3Oc3ccc(F)cc3-c3cncnc3C3CC3)C2)C1 (single isomer, unassigned) [Compound 348]	10.2
0.003	0.0002	CO[C@H]1CCN([C@H]2C[C@@H](C(C(C)C)N3CC4(CCN(c5ncnnc5Oc5ccc(F)cc5-c5nnccc5C5CC5)C4)C3)C2)C1 (single isomer, unassigned) [Compound 331]	2.85
0.003	0.00015	CC(=O)N1CC2(C1)CN([C@H]1C[C@@H]([C@H](C(C)C)N3CC4(CCN(c5ncnnc5Oc5ccc(F)cc5-c5cnc(C)cc5C5CC5)C4)C3)C1)C2 (single isomer, unassigned) [Compound 371]	10.1
